The values that follow are results of earlier work, collected in article PMC9610285 (Pharmaceutics, 2022).

The conditions of the data set: cited from earlier work.

Structures are written as SMILES.

With `C#CCN[C@@H]1CCc2ccccc21` [rasagiline, Rasagiline], the water solubility result was “poorly water-soluble”.
